Experimental data reported in the METLIN SMRT retention time set (Domingo-Almenara et al. 2019).

test: gradient 5% acetonitrile 3 min, to 50% in 2 min, to 85% in 15 min, held 3 min, 100 µL/min; settings: column: Zorbax Extend-C18 2.1 x 50 mm; eluents: water / acetonitrile, 0.1% formic acid
How it was run: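 Pure standards were run in mixtures of ~100 molecules by HPLC coupled to a quadrupole time-of-flight mass spectrometer. The column was a Zorbax Extend-C18 (2.1 × 50 mm, 1.8 μm) at 100 μL/min, with water and acetonitrile each containing 0.1% formic acid, in positive and negative ionization mode. Dead and dwell volumes were 40 μL and 900 μL. Retention time was taken from computationally picked adduct peaks, each manually inspected, with data collected over 3 months.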

RP-LC retention time [s]	SMILES
824	O=C(NC1CCCC1)c1ccc2c(c1)CC(=O)N2Cc1ccc(F)cc1
553	O=C(NCCCN1CCOCC1)c1csc(-c2ccc(N3CCCC3)nc2)n1
683	CCOc1ccc(NC(=O)C2CCCN(c3nnc4ccc(Cl)cn34)C2)cc1 (stereo not given)
750	COc1cc(OC)c(C(=O)CCCCN2CCC3(CC2)NC(=O)NC3=O)cc1NS(=O)(=O)c1ccc(C(F)(F)F)cc1
608	Cc1ccc(CNC(=O)C2(C)Cn3nc(C(=O)NCCN4CCCC4)cc3C(=O)N2C)cc1 (stereo not given)
897	CCc1ccc(-n2nc(CO)c(C(=O)NC3CC3)n2)cc1
715	O=C(NC1CCN(c2cc(-c3cccs3)[nH]n2)C1)c1cccc(F)c1 (stereo not given)
920	CC1CCN(c2cc(-n3cnc(C(=O)N4CCCCC4)c3)ncn2)CC1
660	COCC(=O)N1CC2CN(S(=O)(=O)c3cccc(F)c3)CC(C1)O2
583	Cc1cccc(S(=O)Cc2ccc(C(=O)NCCN3CCOCC3)o2)c1 (stereo not given)
712	O=C(Nc1ccc2c(c1)OCCO2)N1CCC2(CCCCO2)CC1
753	O=C(Nc1ccccc1)C1CCCN(c2nnc3ccc(Cl)cn23)C1 (stereo not given)
577	CCNC(=O)N1CCCC(c2cccc(C(=O)NCCN3CCOCC3)c2)C1 (stereo not given)
601	COc1ccccc1C(=O)N1CCN(c2cnn3c(C)nnc3c2)CC1
629	COc1ccc(S(=O)(=O)N2CCCC2)cc1C(=O)NC1CCS(=O)(=O)C1 (stereo not given)
800	Cc1cc(C)cc(NC(=O)N2CCC(N3CCN(Cc4cccc(F)c4)C(=O)C3=O)CC2)c1
566	NC(=O)Cn1cnc2nc(N3CCC(C(=O)NC4CC4)CC3)sc2c1=O
975	CCCn1c(=O)sc2cc(S(=O)(=O)N3CCC(C(=O)NCc4cccc(C)c4)CC3)ccc21
798	O=C(NCc1noc(C2CCCC2)n1)c1ccc(F)cc1
503	COC(=O)N1CCN(CCNC(=O)NC2CCCCC2)CC1
718	O=C1COc2cc(S(=O)(=O)N3CCCC3C(=O)NCc3ccccc3)c(Cl)cc2N1 (stereo not given)
1140	O=C(Nc1ccccc1)C1CCCN(S(=O)(=O)c2cc(-c3noc(C4CCC4)n3)cs2)C1 (stereo not given)
668	Cn1c(C(=O)NCCCN2CCCC2=O)cc2c(=O)oc3ccccc3c21
983	Cc1ccc(S(=O)(=O)N2CCC(c3nc(-c4ccncc4)no3)CC2)cc1C
667	CN(C)C(=O)c1ccc2c(c1)N(CC(=O)N1CCN(C(=O)c3ccco3)CC1)C(=O)C1CCCCN21 (stereo not given)
751	COc1nn(C)cc1C(=O)NCC1(c2ccc(F)cc2)CC1
794	Cc1ccc(C2Cn3cnc(C(=O)N4CCC(C(=O)NC5CCCCC5)CC4)c3CO2)cc1 (stereo not given)
720	COc1cc(C(C)=O)ccc1OCCCN1CCC(c2noc3cc(F)ccc23)CC1
930	Cc1ccc(CN2C(=O)CN(S(C)(=O)=O)CC2(C)C(=O)NC2CCCCCCC2)cc1 (stereo not given)

Continued, compound first:

SMILES	RP-LC retention time [s]
CCCN1CCN(c2ccc(-c3nc(-c4ccc(C)cc4)no3)cn2)CC1	750
Cc1c(F)cccc1NC(=O)N1CCCC(Cn2cnc3cccnc32)C1 (stereo not given)	709
CCn1ccc2sc(C)c(C(=O)NCc3ccccc3OC)c2c1=O	796
CCOc1ccc(Nc2c(-c3ccccc3)nc3cnccn23)cc1	877
Cc1cc(C)cc(NC(=O)Cn2ccc3sccc3c2=O)c1	820
CCCC(=O)N1CCC2(CC1)C(=O)N(C)c1ccccc12	764
Cc1csc(NC(=O)Cc2cc(-c3cccs3)on2)n1	763
O=C(NCc1cccnc1)C1CCN(c2nnc3ccc(C(F)(F)F)cn23)CC1	536
CCc1ccc(N2CC(c3noc(-c4ccccn4)n3)CC2=O)cc1 (stereo not given)	829
C=CCn1c(=O)c2ccccc2n(Cc2nc(-c3ccccc3OCC)no2)c1=O	1000
O=C(Cn1nc2n(c1=O)CCCCC2)Nc1ccccc1C(F)(F)F	713
O=c1c2cc(-c3ccc4c(c3)OCO4)nn2ccn1Cc1ccccc1F	985
CNC(=O)[C@@H]1C[C@@H](O)CN1C1CCN(C(=O)c2cc(C)oc2C)CC1	613
O=C(c1cncc(Br)c1)N1CCN(C(=O)c2cc(-c3ccncc3)n[nH]2)CC1	578
Cc1ccc(CNC(=O)CCNc2c(-c3ccc(F)cc3)nc3cnccn23)o1	694
Cc1nn(CC(=O)Nc2ccc(Cl)cc2F)c(=O)c2noc(C)c12	796
Cc1cc(C)cc(C(=O)N2CCC3(CC2)NC(=O)c2ccc(F)cc2N3C)c1	787
Cc1nn(CC(=O)NCCc2c[nH]c3ccccc23)c(=O)c2noc(C)c12	708
C[C@H]1CN(C(=O)c2ccccc2F)C[C@@H]1c1nc(-c2ccccc2)no1	1020
Cc1ccc(C)c(S(=O)(=O)NCc2c(-c3ccccc3)nc3sc(C)nn23)c1	916
CCOc1ccccc1C(=O)Nc1ccc2c(c1)Sc1ncccc1C(=O)N2C(C)C	871

SMILES	RP-LC retention time [s]
O=C(c1ccc2c(c1)OCO2)N1CCCN(c2nnc3ccc(Cl)cn23)CC1	591
CC(C)NC(=O)c1cn(-c2ccc(-c3nc(C(C)(C)C)no3)cn2)cn1	970
COc1ccc(CCNC(=O)CSc2nnc(NC(=O)CC(C)C)s2)cc1OC	700
Cc1nn(C)cc1CN1C[C@@H]2C(=O)N(Cc3ccc4c(c3)OCO4)C(=O)[C@@H]2C1	601
CC1Oc2ccc(-c3csc(NC(=O)C(C)(C)C)n3)cc2NC1=O (stereo not given)	856
CC(C)c1nc2ccc(C(=O)NCCc3c[nH]c4ccc(Cl)cc34)cc2o1	941
CC(C)c1ccc(OCC(=O)Nc2nnc(C3CC(=O)N(c4ccccc4)C3)o2)cc1 (stereo not given)	728
CCc1ccc(NC(=O)N(CC)c2nc(-c3ccc(C4CCCCC4)cc3)cs2)cc1	641
CC(C)C(=O)NCCc1csc(C2CCN(C(=O)NC(C)(C)C)CC2)n1	681
CCCCNC(=O)Cc1c(C)nn(-c2nc(-c3ccc(F)cc3)cs2)c1C	1070
CCNc1cc(N2CCC(CCC(=O)NC(CC)CC)CC2)ncn1	639
CCCNC(=O)C1CCCN(c2nc(C)nc3onc(CC)c23)C1 (stereo not given)	743
Cc1ccccc1Cn1cccc1CNC(=O)Nc1ccc2c(c1)OCO2	931
CCc1cccc(NC(=O)COc2cc(C)nc(N3CCN(c4ccccc4)CC3)n2)c1	922
CCc1nc(OCC(=O)Nc2ccccc2C(F)(F)F)c2ccccc2n1	846
CCCN(C)C(=O)c1ccc(-n2cc(CNC(=O)C3CCC3)cn2)cc1	695
Cc1nn(-c2ccccc2)c2c1N(CCCC(=O)NC1CC1)C(=O)CS2	780
Cc1c(S(=O)(=O)NCC2CC2)c(C)n(C)c1-c1nnc(C2CCC2)o1	899
Cc1nc2cc(-c3noc(-c4cccc(Cl)c4)n3)ccc2o1	1210
CSc1ccc(NC(=O)C2CCCN(c3cnc4nc(C)c(C)nc4c3)C2)cc1 (stereo not given)	819
CC(C)N1C(=O)C(C)(C(=O)Nc2ccc(F)cc2)Oc2cccnc21 (stereo not given)	986

SMILES	RP-LC retention time [s]
O=C(Nc1ccc(F)c(F)c1)c1c(O)c2cccnc2n(-c2ccccc2)c1=O	916
CCOC(=O)C1=C(C)NC2=C(C(=O)c3ccccc32)C1c1ccc(OC)c(OC)c1 (stereo not given)	902
Cc1ccc(C)c(C(=O)N2CCC3(CC2)N=C(c2ccccc2)NO3)c1	855
O=C(Nc1ccccc1)Nc1ccc2nnc(C3CC3)n2c1	703
CCOC(=O)c1cnn(-c2ccc(C(=O)NC(C)C)cc2)c1N	823
O=C(CCc1csc2nc(C3CC3)cn12)NCc1ccc(OC(F)(F)F)cc1	612
Cc1ccc(CNC(=O)c2cc3n(n2)CCCN(Cc2ccc(Cl)cc2)C3=O)o1	655
Cc1noc(COC2CCN(C(=O)CCc3c(C)noc3C)CC2)n1	661
CCn1cc(C)c(C(=O)O)c1CC(=O)NCc1cccnc1	584
N#Cc1cc(NC(=O)c2ccc3c(c2)OCO3)ccc1N1CC2CC(C1)c1cccc(=O)n1C2 (stereo not given)	749
COc1cc2c(cc1OC)C(C(=O)NCc1ccc(C)o1)C1c3ccccc3CCN1C2=O (stereo not given)	946
O=C(c1ccccc1N1C(=O)c2cccc3cccc(c23)C1=O)N1CCOCC1	692
Cc1ccccc1C1CCCN1C(=O)c1cnn2cc(Br)cnc12 (stereo not given)	869
CCn1nc(C)c(CCN(C)C(=O)Nc2ccccc2Br)c1C	705
Cc1ccc(Nc2nc(-c3ccncc3)nc3ccccc23)cc1	797
COc1ccc(-n2c(C)nc3ccc(NC(=O)C4CC4)cc3c2=O)cc1	683
Cc1nnc(NC(=O)CN2CCN(c3ccccc3F)C2=O)s1	626
O=C(NCc1ccccc1F)c1ccc2c(c1)CN(Cc1cccs1)CCO2	759
Oc1c(CN2CCN(c3ccccc3)CC2)cc(Br)c2cccnc12	830
